IC50 data for 25 molecules are collected here from patent US8377974B2 (Millennium Pharmaceuticals, Inc., priority 2004, dated 2013).

Each structure is given as a SMILES string.

What is called IC50 is the concentration at which inhibition is half-maximal.

For the experiment, the target named is T1, human plasma protein factor Xa (Homo sapiens, UniProt P00742).
T1 construct: measure proteolytic activity of the enzyme (factor Xa); purchased Haematologic Technologies (Essex Junction, Vt.); host or cells: human plasma
T1 sequence (P00742 235-488 limits assumed): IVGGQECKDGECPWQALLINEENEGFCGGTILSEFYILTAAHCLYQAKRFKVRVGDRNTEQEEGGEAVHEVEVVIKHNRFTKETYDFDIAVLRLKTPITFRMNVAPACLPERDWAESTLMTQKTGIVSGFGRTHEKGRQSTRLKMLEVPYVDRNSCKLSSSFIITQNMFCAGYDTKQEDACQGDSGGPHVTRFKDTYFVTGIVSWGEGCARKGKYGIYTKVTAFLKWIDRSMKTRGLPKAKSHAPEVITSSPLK
T1 sequence (P00742 41-179 partner limits assumed): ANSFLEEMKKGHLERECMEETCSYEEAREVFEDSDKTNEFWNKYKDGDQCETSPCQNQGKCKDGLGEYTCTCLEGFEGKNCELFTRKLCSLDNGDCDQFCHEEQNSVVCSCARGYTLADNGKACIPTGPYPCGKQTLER
Kind of experiment: Factor Xa IC50 determination: cleavage of paranitroanilide substrate S-2765 in 96-well plates. The format is biochemical. The note with it: fXa 1 nM, S-2765 100 μM, Tris buffered saline pH 7.4, room temperature. The text has this:
This example illustrates methods for evaluating the compounds of the invention, along with results obtained for such assays. The in vitro and in vivo Factor Xa isoform activities of the inventive compounds can be determined by various procedures known in the art, such as a test for their ability to inhibit the activity of the Factor Xa isoform. […] The IC50 value is the concentration (in nM) of the compound required to provide 50% inhibition of Factor Xa isoform.
An in vitro assay for detecting and measuring inhibition activity against Factor Xa is as follows:
The substrate S-2765 (Z-D-Arg-Gly-Arg-pNA.HCl) was obtained from Diapharma (West Chester, Ohio).
The human plasma protein factor Xa was purchased from Haematologic Technologies (Essex Junction, Vt.).
All assays, which are performed in 96-well microtiter plates, measure proteolytic activity of the enzyme (factor Xa) by following cleavage of paranitroanilide substrate. The assay buffer used for proteolytic assays was Tris buffered saline (20 mM Tris, 150 mM NaCl, 5 mM CaCl2, 0.1% Bovine serum albumin (BSA), 5% Dimethly Sulfoxide (DMSO) pH 7.4). In a 96-well microtiter plate, inhibitor was serially diluted to give a range of concentrations from 0.01 nM to 10 μM (final). Duplicate sets of wells were assayed and control wells without inhibitor were included. Enzyme was added to each well, (fXa concentration=1 nM), the plate was shaken for 5 seconds and then incubated for 5 minutes at room temperature. S2765 was added (100 μM final) and the plate was shaken for 5 seconds (final liquid volume in each well was 200 μl). The degree of substrate hydrolysis was measured at 405 nm on a Thermomax plate reader (Molecular Devices, Sunnyvale, Calif.) for 2 minutes. The initial velocities (mOD/min), for each range of inhibitor concentrations, were fitted to a four parameter equation using Softmax data analysis software. The parameter C, derived from the resulting curve-fit, corresponded to the concentration for half maximal inhibition (IC50).
For the molecule `C[C@H](NC(=O)c1ccc(Cl)s1)c1cc(-c2ccc(C(=N)N3CCCCC3)cc2)no1` [Example 56, (S)-5-Chloro-thiophene-2-carboxylic acid (1-{3-[4-(imino-piperidin-1-yl-methyl)-phenyl]-isoxazol-5-yl}-ethyl)-amide], the IC50 is no more than 100 nM.

The molecule `CN(C)C(=N)c1ccc(C2=NOC(C)(CNC(=O)c3ccc(Cl)s3)C2)cc1` (stereo not shown) [Example 57, 5-Chloro-thiophene-2-carboxylic acid {3-[4-(N,N-dimethyl-carbamimidoyl)-phenyl]-5-methyl-4,5-dihydro-isoxazol-5-ylmethyl}-amide] had an IC50 of no more than 100 nM.

`CN1CCN=C1c1ccc(C2=NOC(C)(CNC(=O)c3ccc(Cl)s3)C2)cc1` (stereo not shown) [Example 58, 5-Chloro-thiophene-2-carboxylic acid {5-methyl-3-[4-(1-methyl-4,5-dihydro-1H-imidazol-2-yl)-phenyl]-4,5-dihydro-isoxazol-5-ylmethyl}-amide] returned an IC50 of no more than 100 nM.

In the case of `CC1(CNC(=O)c2ccc(Cl)s2)CC(c2ccc(C(=N)N3CCCC3)cc2)=NO1` (stereo not shown) [Example 59, 5-Chloro-thiophene-2-carboxylic acid {3-[4-(imino-pyrrolidin-1-yl-methyl)-phenyl]-5-methyl-4,5-dihydro-isoxazol-5-ylmethyl}-amide], the IC50 was no more than 100 nM.

The molecule `CC1(CNC(=O)c2ccc(Cl)s2)CC(c2ccc(C(=N)N3CCCCC3)cc2)=NO1` (stereo not shown) [Example 60, 5-Chloro-thiophene-2-carboxylic acid {3-[4-(imino-piperidin-1-yl-methyl)-phenyl]-5-methyl-4,5-dihydro-isoxazol-5-ylmethyl}-amide] showed a half-maximal inhibitory concentration (IC50) of no more than 100 nM.

Molecule `CCOC(=O)C1CCN(C(=N)c2ccc(C3=NOC(C)(CNC(=O)c4ccc(Cl)s4)C3)cc2)CC1` (stereo not shown) [Example 61, 1-{[4-(5-{[(5-Chloro-thiophene-2-carbonyl)-amino]-methyl}-5-methyl-4,5-dihydro-isoxazol-3-yl)-phenyl]-imino-methyl}-piperidine-4-carboxylic acid ethyl ester] came in with an IC50 of no more than 100 nM.

For the molecule `CC1(CNC(=O)c2ccc(Cl)s2)CC(c2ccc(C(=N)N3CCC3)cc2)=NO1` (stereo not shown) [Example 62, 5-Chloro-thiophene-2-carboxylic acid {3-[4-(azetidin-1-yl-imino-methyl)-phenyl]-5-methyl-4,5-dihydro-isoxazol-5-ylmethyl}-amide], the IC50 is no more than 100 nM.

Molecule `CC1(CNC(=O)c2ccc(Cl)s2)CC(c2ccc(C(N3CCC3)=[N+]3CCC3)cc2)=NO1` (stereo not shown) [Example 63, 5-Chloro-thiophene-2-carboxylic acid {3-[4-(azetidin-1-yl-azetidin-1-ylidene-methyl)-phenyl]-5-methyl-4,5-dihydro-isoxazol-5-ylmethyl}-amide] gave an IC50 of no more than 100 nM.

Molecule `CCN(C)C(=N)c1ccc(C2=NOC(C)(CNC(=O)c3ccc(Cl)s3)C2)cc1` (stereo not shown) [Example 64, 5-Chloro-thiophene-2-carboxylic acid {3-[4-(N-ethyl-N-methyl-carbamimidoyl)-phenyl]-5-methyl-4,5-dihydro-isoxazol-5-ylmethyl}-amide] showed an IC50 of no more than 100 nM.

`CN(C)CCN(C)C(=N)c1ccc(C2=NOC(C)(CNC(=O)c3ccc(Cl)s3)C2)cc1` (stereo not shown) [Example 65, 5-Chloro-thiophene-2-carboxylic acid (3-{4-[N-(2-dimethylamino-ethyl)-N-methyl-carbamimidoyl]-phenyl}-5-methyl-4,5-dihydro-isoxazol-5-ylmethyl)-amide] showed an IC50 of no more than 100 nM.

As to `COCCN(C)C(=N)c1ccc(C2=NOC(C)(CNC(=O)c3ccc(Cl)s3)C2)cc1` (stereo not shown) [Example 66, 5-Chloro-thiophene-2-carboxylic acid (3-{-4-[N-(2-methoxy-ethyl)-N-methyl-carbamimidoyl]-phenyl}-5-methyl-4,5-dihydro-isoxazol-5-ylmethyl)-amide], the IC50 was 100 to 500 nM.

On to `CN(Cc1ccco1)C(=N)c1ccc(C2=NOC(C)(CNC(=O)c3ccc(Cl)s3)C2)cc1` (stereo not shown) [Example 67, 5-Chloro-thiophene-2-carboxylic acid {3-[4-(N-furan-2-ylmethyl-N-methyl-carbamimidoyl)-phenyl]-5-methyl-4,5-dihydro-isoxazol-5-ylmethyl}-amide], for which the IC50 is no more than 100 nM.

As for `CC1(CNC(=O)c2ccc(Cl)s2)CC(c2ccc(C(=N)N3CCC(C(N)=O)CC3)cc2)=NO1` (stereo not shown) [Example 68, 1-{[4-(5-{[(5-Chloro-thiophene-2-carbonyl)-amino]-methyl}-5-methyl-4,5-dihydro-isoxazol-3-yl)-phenyl]-imino-methyl}-piperidine-4-carboxylic acid amide], the IC50 lay in the range of 100 to 500 nM.

Regarding `CNC(=N)c1ccc(C2=NOC(C)(CNC(=O)c3ccc(Cl)s3)C2)cc1` (stereo not shown) [Example 69, 5-Chloro-thiophene-2-carboxylic acid {5-methyl-3-[4-(N-methylcarbamimidoyl)-phenyl]-4,5-dihydro-isoxazol-5-ylmethyl}-amide], the IC50 was no more than 100 nM.

For `CN1CCN=C1c1ccc(-c2cc(CNC(=O)c3ccc(Cl)s3)on2)c(F)c1` [Example 70, 5-Chloro-thiophene-2-carboxylic acid {3-[2-fluoro-4-(1-methyl-4,5-dihydro-1H-imidazol-2-yl)-phenyl]-isoxazol-5-ylmethyl}-amide], the IC50 is no more than 100 nM.

On to `N=C(c1ccc(-c2cc(CNC(=O)c3ccc(Cl)s3)on2)c(F)c1)N1CCCC1` [Example 71, 5-Chloro-thiophene-2-carboxylic acid {3-[2-fluoro-4-(imino-pyrrolidin-1-yl-methyl)-phenyl]-isoxazol-5-ylmethyl}-amide], for which the IC50 is no more than 100 nM.

Take `N=C(c1ccc(-c2cc(CNC(=O)c3ccc(Cl)s3)on2)c(F)c1)N1CCCCC1` [Example 72, 5-Chloro-thiophene-2-carboxylic acid {3-[2-fluoro-4-(imino-piperidin-1-yl-methyl)-phenyl]-isoxazol-5-ylmethyl}-amide]: the 50% inhibitory concentration (IC50) was no more than 100 nM.

`CN(C)C(=N)c1ccc(C2=NOC(CNC(=O)c3ccc(Cl)s3)C2)c(N(C)C)c1` (stereo not shown) [Example 74, 5-Chloro-thiophene-2-carboxylic acid {3-[2-dimethylamino-4-(N,N-dimethyl-carbamimidoyl)-phenyl]-4,5-dihydro-isoxazol-5-ylmethyl}-amide] came in with an IC50 of 100 to 500 nM.

The molecule `CN1CCN=C1c1ccc(C2=NOC(CNC(=O)c3ccc(Cl)s3)C2)c(N(C)C)c1` (stereo not shown) [Example 75, 5-Chloro-thiophene-2-carboxylic acid {3-[2-dimethylamino-4-(1-methyl-4,5-dihydro-1H-imidazol-2-yl)-phenyl]-4,5-dihydro-isoxazol-5-ylmethyl}-amide] showed a 50% inhibitory concentration (IC50) of 100 to 500 nM.

`CN(C)c1cc(C(=N)N2CCCC2)ccc1C1=NOC(CNC(=O)c2ccc(Cl)s2)C1` (stereo not shown) [Example 76, 5-Chloro-thiophene-2-carboxylic acid {3-[2-dimethylamino-4-(imino-pyrrolidin-1-yl-methyl)-phenyl]-4,5-dihydro-isoxazol-5-ylmethyl}-amide]: the IC50 was in the range of 100 to 500 nM.

Consider `CN(C)c1cc(C(=N)N2CCCCC2)ccc1C1=NOC(CNC(=O)c2ccc(Cl)s2)C1` (stereo not shown) [Example 77, 5-Chloro-thiophene-2-carboxylic acid {3-[2-dimethylamino-4-(imino-piperidin-1-yl-methyl)-phenyl]-4,5-dihydro-isoxazol-5-ylmethyl}-amide], for which the IC50 was no more than 100 nM.

`CN(C)C(=N)c1ccc(C2=NOC(CNC(=O)c3ccc(Cl)s3)C2)c(N2CCCC2)c1` (stereo not shown) [Example 78, 5-Chloro-thiophene-2-carboxylic acid {3-[4-(N,N-dimethyl-carbamimidoyl)-2-pyrrolidin-1-yl-phenyl]-4,5-dihydro-isoxazol-5-ylmethyl}-amide] displayed an IC50 of 100 to 500 nM.

The molecule `CN1CCN=C1c1ccc(C2=NOC(CNC(=O)c3ccc(Cl)s3)C2)c(N2CCCC2)c1` (stereo not shown) [Example 79, 5-Chloro-thiophene-2-carboxylic acid {3-[4-(1-methyl-4,5-dihydro-1H-imidazol-2-yl)-2-pyrrolidin-1-yl-phenyl]-4,5-dihydro-isoxazol-5-ylmethyl}-amide] showed a concentration for half-maximal inhibition (IC50) of 100 to 500 nM.

`N=C(c1ccc(C2=NOC(CNC(=O)c3ccc(Cl)s3)C2)c(N2CCCC2)c1)N1CCCC1` (stereo not shown) [Example 80, 5-Chloro-thiophene-2-carboxylic acid {3-[4-(imino-pyrrolidin-1-yl-methyl)-2-pyrrolidin-1-yl-phenyl]-4,5-dihydro-isoxazol-5-ylmethyl}-amide] had a half-inhibitory concentration (IC50) of 100 to 500 nM.

For the molecule `N=C(c1ccc(C2=NOC(CNC(=O)c3ccc(Cl)s3)C2)c(N2CCCC2)c1)N1CCCCC1` (stereo not shown) [Example 81, 5-Chloro-thiophene-2-carboxylic acid {3-[4-(imino-piperidin-1-yl-methyl)-2-pyrrolidin-1-yl-phenyl]-4,5-dihydro-isoxazol-5-ylmethyl}-amide], the concentration for half-maximal inhibition (IC50) was no less than 500 nM.
